Where two headings read alike, the source gives them in different places.

From patent US20220273768A1 (The George Washington University, priority 2019, published 2022) come the findings set out here.

Data set [1] has as its system hypoglossal neurons (HGNs). Briefly: Excitatory post-synaptic currents (EPSCs) recorded in vitro from HGNs. It counts as cell-based, mouse. Particulars: for spontaneous excitatory post-synaptic currents (EPSCs) in HGNs: FIG. 7, DAMGO then leptin added to DAMGO; for EPSC frequency in HGNs: FIG. 16, n=7, DAMGO focally applied, then 200 nM leptin co-infusion.
In data set [2] the test system is hypoglossal motoneurons (HGN). Description: HGN firing per fictive inspiratory burst in bursting slice preparation. It counts as cell-based, mouse. Particulars: DAMGO 500 nM; then leptin 200 nM with DAMGO; prior to DAMGO 3-5.
Data set [3] has as its system hypoglossal motoneurons (HGN). Description: Excitatory post-synaptic currents in HGNs evoked by photoexcitation of ChR2 fibers from LepR^b+ neurons. The class given is cell-based, mouse.
The test system of data set [4] is lean C57BL/6J mice. Briefly: Blood pressure by telemetry during SC leptin infusion. It counts as in vivo, mouse. The method, then: Blood pressure was measured by telemetry (DSI) implanted in the left femoral artery of freely behaving lean C57BL/6J mice at baseline and during leptin infusion (120 μg/day for 3 days via a SC pump) before and after carotid body (CB) denervation or sham surgery.

Data set [5] has as its system lean C57BL/6J mice. Description: Barometric plethysmography during subcutaneous leptin infusion in lean mice. The class given is in vivo, mouse. Particulars: SC osmotic pump leptin 0.2 mg/kg/hour. The text has this: Leptin increases minute ventilation, stimulates control of breathing and reverses UAO during sleep in leptin deficient ob/ob mice as shown in Pho et al., Journal of Applied Physiology 120, 78-86 (2016); Yao et al., Sleep 39, 1097-106 (2016); and O'Donnell et al., American Journal of Respiratory & Critical Care Medicine 159, 1477-1484 (1999), the disclosures of which are incorporated herein in their entirety. As such, it was proposed that high doses of leptin also stimulate ventilation and control of breathing in lean C57BL/6J mice. […] In six mice, a subcutaneous osmotic pump (DURECT, Cupertino, Calif., USA) filled with saline was implanted and baseline minute ventilation (VE) and the hypoxic ventilatory response (HVR) were measured by exposing mice to room air and 10% O2. […] VE normalized to body weight and the hypoxic ventilatory response (HVR) was calculated as the ratio of [VE (10% O2)−VE (20.9% O2) to the change in FiO2 (ΔFiO2=10.9% between normoxia and hypoxia) and reported as ΔVE/ΔFiO2. Subsequently, a subcutaneous osmotic pump for leptin infusion (0.2 mg/kg/hour) was implanted and the HVR was measured. […]

Data set [6] relates to DIO C57BL/6J mice. Briefly: Sleep study (plethysmography) in diet-induced obese mice, mouse model of OSA. It counts as in vivo. The settings on record: IN leptin 0.4 mg/kg single dose.
Data set [7] concerns LepR^b+ neurons in the dorsomedial hypothalamus (DMH). It counts as cell-based, mouse.
Data set [8] is described as follows: Plasma leptin levels after IN and IP leptin. The class given is in vivo, mouse. Particulars: IN leptin, 1, 3 and 6 hours vs baseline, n=4. The method, then: FIG. 18 depicts a graph showing plasma leptin levels measured 1, 3, and 6 hours after IN and IP leptin administrations, as compared to baseline, n=4, for each treatment. *p<0.05.
Data set [9] relates to STAT3 phosphorylation (pSTAT3) via LepR^b. Description: Leptin signaling by STAT3 phosphorylation (pSTAT3) immunofluorescent staining of brain sections. The class given is in vivo, mouse. Particulars: DIO mice.
Data set [10] concerns DIO C57BL/6J mice.
Data set [11] is described as follows: Leptin detection in brain tissue by ELISA after IN administration. The class given is in vivo, mouse. The settings on record: IN leptin 0.8 mg/kg in 1% BSA, 20 minutes, vs IN vehicle. The method, then: To determine the effect of intranasal (IN) leptin in the brain, leptin detection in brain tissue by ELISA was assessed after IN administration. In brief, male lean C57BL/6J mice (30 g of weight), were treated with IN leptin (24 μl) at 0.8 mg/kg in 1% BSA or 1% BSA and sacrificed 20 minutes later. Brains were extracted, then the olfactory bulbs, hypothalami and medullas were isolated, quick frozen in liquid nitrogen and stored at −80° C. For leptin level measurements, brain tissue was homogenized in 160 mM KCL, 25 mM HEPES, 0.2% Triton X-100 and protease inhibitors. Total protein concentrations were determined using a BioRad DC Protein kit and ELISA for leptin was performed with a Millipore kit.

Where [12] appears, read: SC leptin 120 μg/day for 3 days.

With `C[C@@H](NC(=O)[C@@H](N)Cc1ccc(O)cc1)C(=O)NCC(=O)N(C)[C@@H](Cc1ccccc1)C(=O)NCCO` [DAMGO, [D-Ala^2, N-MePhe^4, Gly-ol]-enkephalin, reference compound], in data set [1], the “spontaneous excitatory post-synaptic currents (EPSCs) in HGNs” value was “rapidly depressed” and the “EPSC frequency in HGNs” value is listed as “significantly reduced”. Moreover, the “action potentials in HGNs associated with each burst” value in [2] is reported as 2-3 action potentials.

For the compound `N#Cc1cc2c(cc1[N+](=O)[O-])=NC(=O)C(=O)N=2` [CNQX, 6-cyano-7-nitroquinoxaline-2,3-dione], in data set [3] (50 μM APV and 50 μM CNQX applied together), the “photoexcitation-evoked excitatory post-synaptic currents in HGNs” value is reported as “blunted, but not blocked”.

As for leptin, in the data set with lean C57BL/6J mice [4] (setting [12]), the “increase in blood pressure at night” value came to 16 mm Hg and the “increase in blood pressure during the day (9 am-9 pm, light phase)” value was 13 mm Hg. The “leptin-mediated increase in blood pressure after carotid body (CB) denervation” value with lean C57BL/6J mice [4] (SC leptin 120 μg/day, not abolished by sham surgery) is given as “completely abolished”. The “hypoxic ventilatory response (HVR, ΔVE/ΔFiO2)” value with lean C57BL/6J mice [5] (10% O2 vs room air, saline pump 0.23) is listed as 0.31 ml/minutes/grams/ΔFiO2. The “minute ventilation (VE)” value in the data set with lean C57BL/6J mice [5] (wakefulness, saline pump 1.1) was found to be 1.5 ml/minutes/grams. In the data set on DIO C57BL/6J mice [6], the “ODI (number of oxyhemoglobin desaturations ≥4%/hour)” value is “dramatic decrease”, the “maximal inspiratory flow (Vimax) during flow limited obstructed breathing” value is listed as “increased”, the “minute ventilation (VE) during flow limited obstructed breathing” value is given as “increased” and the non-flow limited breathing entry was “increased”. In addition, the “effect on LepR^b+ neurons (firing)” value in data set [7] is “excited”. The plasma leptin levels entry in [8] is given as “did not increase”. In addition, the “signaling (STAT3 phosphorylation) in dorsal medulla, RVLM, CC, DMV, NA, XII” value in data set [9] (IN leptin single dose, one hour) is on record as “increased”. Further, the “number of pSTAT3-positive cells in the hypothalamus and medulla” value in data set [9] (IN leptin vs IP leptin and vehicle groups) is recorded as “highest”. In [9] (IP leptin single dose, one hour), the “signaling (STAT3 phosphorylation) in dorsal medulla or RVLM” value is “no effect”. For the same compound, in data set [1], the “spontaneous excitatory post-synaptic currents (EPSCs) in HGNs” value is reported as “successfully reversed” and the “EPSC frequency in HGNs” value is given as “restored”. Besides, in the data set with DIO C57BL/6J mice [10] (mouse, in vivo), the “IFL prevalence (frequency of upper airway obstruction)” value is on record as “decreased”; the “apnea-hypopnea index (AHI)” value is recorded as “dramatically reduced”; the “frequency of upper airway obstruction (IFL breaths), NREM sleep” value is listed as “decreased”; the “inspiratory flow limitation (IFL)” value is given as “markedly improved”. For the same compound, in the data set on DIO C57BL/6J mice [10] (mouse, in vivo), the “leptin effects on apneas, VE, IFL frequency, VImax and VE during IFL” value was “no longer significant”; the “maximal inspiratory flow (Vimax) during IFL” value was “increases”; the “maximal inspiratory flow (Vimax) during obstructed (IFL) breathing, NREM sleep” value is “reversals of morphine-induced reductions”; the “minute ventilation (VE), non-flow limited respiration, NREM sleep” value is “increase”. Besides, in the data set on DIO C57BL/6J mice [10] (mouse, in vivo), the “minute ventilation during IFL (VE IFL)” value was “increases”; the “minute ventilation during obstructed (IFL) breathing, NREM sleep” value is on record as “reversals of morphine-induced reductions”; the “non-flow limited breathing (NFL), respiratory depression” value is given as “prevented”; the “number of apneic events during NREM sleep” value is “decreased”. In the data set with DIO C57BL/6J mice [10] (mouse, in vivo), the “respiratory depression (minute ventilation, VE)” value is “prevented”; the respiratory rate result is reported as “increasing”; the “respiratory rate during NFL breathing” value is reported as “did not change”; the “tidal volume (VT)” value is “increasing”. Moreover, the “tidal volume during NFL breathing” value with DIO C57BL/6J mice [10] (mouse, in vivo) amounted to 0.44±0.03. For the same compound, in data set [11], the “leptin levels in the hypothalamus” value is recorded as “strong increase”, the “leptin levels in the medulla” value is listed as “significantly increased” and the “leptin levels in the olfactory bulb” value is “significantly increased”. The “action potentials in HGNs associated with each burst” value in data set [2] was 3-4 action potentials.

As for `N[C@H](CCCP(=O)(O)O)C(=O)O` [APV, (2R)-amino-5-phosphonovaleric acid], the “photoexcitation-evoked excitatory post-synaptic currents in HGNs” value in [3] is recorded as “blunted, but not blocked”.

For `CN1CC[C@]23c4c5ccc(O)c4O[C@H]2[C@@H](O)C=C[C@H]3[C@H]1C5` [morphine, reference compound], the “IFL prevalence (frequency of upper airway obstruction)” value with DIO C57BL/6J mice [10] (FIG. 3B experiment, DIO mice n=4, morphine 10 mg/kg) is 39.6±9.3 % of all breaths. The “maximal inspiratory flow (Vimax) during IFL” value in the data set on DIO C57BL/6J mice [10] (FIG. 3C, DIO mice n=4, morphine 10 mg/kg) was “decreasing”. The “minute ventilation during IFL (VE IFL)” value in the data set with DIO C57BL/6J mice [10] (FIG. 3D, DIO mice n=4, morphine 10 mg/kg) is “decreasing”. Besides, in the data set on DIO C57BL/6J mice [10] (FIG. 3E experiment, morphine 10 mg/kg), the “respiratory rate during NFL breathing” value is given as “decreased”. Besides, the “non-flow limited breathing (NFL), respiratory depression” value in the data set with DIO C57BL/6J mice [10] (FIG. 3E, DIO mice n=4, morphine 10 mg/kg) was “suppressed”. In addition, the “respiratory depression (minute ventilation, VE)” value with DIO C57BL/6J mice [10] (IP morphine 80 mg/kg, DIO mice) is listed as “induced respiratory depression”. Also, in the data set with DIO C57BL/6J mice [10] (NREM sleep, n=9, morphine 10 mg/kg, baseline 13.9±3.7), the “number of apneic events during NREM sleep” value is recorded as 91.5±20.0. Moreover, in the data set on DIO C57BL/6J mice [10] (morphine 10 mg/kg, baseline 11.9±5.5%), the “frequency of upper airway obstruction (IFL breaths), NREM sleep” value is listed as 56.8±4.8 % of all breaths. For the same compound, in the data set with DIO C57BL/6J mice [10] (n=5, morphine 10 mg/kg), the “minute ventilation during obstructed (IFL) breathing, NREM sleep” value is recorded as “significantly decreased”. Besides, in the data set with DIO C57BL/6J mice [10] (n=5, morphine 10 mg/kg, baseline 3.4±0.4), the “maximal inspiratory flow (Vimax) during obstructed (IFL) breathing, NREM sleep” value came to 2.3 ± 0.5 mL/min. Besides, the “minute ventilation (VE), non-flow limited respiration, NREM sleep” value in the data set with DIO C57BL/6J mice [10] (n=9, morphine 10 mg/kg, baseline 1.2±0.1) turned out to be 0.7 ± 0.1 mL/min/g. Also, the “inspiratory flow limitation (IFL)” value in the data set on DIO C57BL/6J mice [10] (sub-lethal IP morphine 80 mg/kg, DIO mice) was “induced severe inspiratory flow limitation”.
